The source of these data is ChEMBL document CHEMBL3046348, “Synthesis and antimicrobial screening of novel 2,6-ditertiarybutylpiperidin-4-ones” (2012).

Converted amounts (≈) assume the structure as drawn. Bounds are passed on as bounds.

Common to all, as to type: functional
The test system of one assay is Bacillus subtilis. Put plainly: Antibacterial activity against Bacillus subtilis after 24 hr by serial dilution method.
Another assay deals with Aspergillus niger. Put plainly: Antifungal activity against Aspergillus niger after 72 to 96 hr by serial dilution method.
The test system of another assay is Klebsiella pneumoniae. The assay is described as follows: Antibacterial activity against Klebsiella pneumoniae after 24 hr by serial dilution method.
The next assay has as its system Trichoderma. Put plainly: Antifungal activity against Trichoderma sp after 72 to 96 hr by serial dilution method.
Another assay relates to Escherichia coli. The assay is described as follows: Antibacterial activity against Escherichia coli after 24 hr by serial dilution method.

In the case of `CC(C)(C)C1CC(=O)CC(C(C)(C)C)N1` (stereo not given), the minimum inhibitory concentration (MIC) came out at 8 mg/L (≈ 37.9 µM) in the assay with Bacillus subtilis; 8 mg/L (≈ 37.9 µM) against Aspergillus niger; 64 mg/L (≈ 303 µM) in the assay with Klebsiella pneumoniae; 8 mg/L (≈ 37.9 µM) with Trichoderma; 64 mg/L (≈ 303 µM) in the assay on Escherichia coli.
Take `CC1C(=O)CC(C(C)(C)C)NC1C(C)(C)C` (stereo not given): the minimum inhibitory concentration (MIC) was 16 mg/L (≈ 71 µM) in the assay on Bacillus subtilis; 8 mg/L (≈ 35.5 µM) in the assay on Aspergillus niger; above 512 mg/L in the assay with Klebsiella pneumoniae; 16 mg/L (≈ 71 µM) in the assay with Trichoderma; 256 mg/L (≈ 1140 µM) in the assay with Escherichia coli.
As for `CCOC(=O)C1C(=O)CC(C(C)(C)C)NC1C(C)(C)C` (stereo not given), the minimal inhibitory concentration (MIC) in the assay on Bacillus subtilis worked out at 8 mg/L (≈ 28.2 µM); against Aspergillus niger, 8 mg/L (≈ 28.2 µM); against Klebsiella pneumoniae, 128 mg/L (≈ 452 µM); against Trichoderma, 32 mg/L (≈ 113 µM); in the assay with Escherichia coli it was 64 mg/L (≈ 226 µM).
Turning to `CC(C)(C)C1CC(=NO)CC(C(C)(C)C)N1` (stereo not given), the minimum inhibitory concentration (MIC) against Bacillus subtilis was 64 mg/L (≈ 283 µM); against Aspergillus niger, 64 mg/L (≈ 283 µM); with Klebsiella pneumoniae it was above 512 mg/L; against Trichoderma, 16 mg/L (≈ 70.7 µM); in the assay on Escherichia coli it was 256 mg/L (≈ 1130 µM).
Regarding `CC1/C(=N/O)CC(C(C)(C)C)NC1C(C)(C)C` (stereo not given), the minimal inhibitory concentration (MIC) in the assay with Bacillus subtilis was 16 mg/L (≈ 66.6 µM); against Aspergillus niger, 8 mg/L (≈ 33.3 µM); against Klebsiella pneumoniae, 32 mg/L (≈ 133 µM); against Trichoderma, 8 mg/L (≈ 33.3 µM); against Escherichia coli, above 512 mg/L.
For the molecule `CCOC(=O)C1/C(=N\O)CC(C(C)(C)C)NC1C(C)(C)C` (stereo not given), the MIC amounted to 64 mg/L (≈ 214 µM) against Bacillus subtilis; 8 mg/L (≈ 26.8 µM) with Aspergillus niger; 64 mg/L (≈ 214 µM) in the assay with Klebsiella pneumoniae; 8 mg/L (≈ 26.8 µM) against Trichoderma; 16 mg/L (≈ 53.6 µM) against Escherichia coli.
As for `CC(C)(C)C1CC(=O)CC(C(C)(C)C)N1C(C)(C)C` (stereo not given), the MIC in the assay with Bacillus subtilis was 8 mg/L (≈ 29.9 µM); in the assay on Aspergillus niger it was 8 mg/L (≈ 29.9 µM); against Klebsiella pneumoniae, 128 mg/L (≈ 479 µM); with Trichoderma it was 16 mg/L (≈ 59.8 µM); in the assay with Escherichia coli, 64 mg/L (≈ 239 µM).
Turning to `CC1C(=O)CC(C(C)(C)C)N(C(C)(C)C)C1C(C)(C)C` (stereo not given), the MIC against Bacillus subtilis is 16 mg/L (≈ 56.8 µM); in the assay with Aspergillus niger, 8 mg/L (≈ 28.4 µM); against Klebsiella pneumoniae it was 64 mg/L (≈ 227 µM); in the assay on Trichoderma, 16 mg/L (≈ 56.8 µM); against Escherichia coli, above 512 mg/L.
`CCOC(=O)C1C(=O)CC(C(C)(C)C)N(C(C)(C)C)C1C(C)(C)C` (stereo not given): the minimal inhibitory concentration (MIC) in the assay with Bacillus subtilis was 16 mg/L (≈ 47.1 µM); in the assay with Aspergillus niger, above 512 mg/L; in the assay with Klebsiella pneumoniae, 256 mg/L (≈ 754 µM); against Trichoderma, above 512 mg/L; in the assay with Escherichia coli, 64 mg/L (≈ 189 µM).
As to `CC(C)(C)C1CC(=O)CC(C(C)(C)C)N1N=O` (stereo not given), the minimal inhibitory concentration (MIC) against Bacillus subtilis was 16 mg/L (≈ 66.6 µM); against Aspergillus niger, above 512 mg/L; in the assay with Klebsiella pneumoniae, 256 mg/L (≈ 1070 µM); in the assay on Trichoderma, above 512 mg/L; in the assay with Escherichia coli, above 512 mg/L.
Consider `CC1C(=O)CC(C(C)(C)C)N(N=O)C1C(C)(C)C` (stereo not given), for which the minimal inhibitory concentration (MIC) against Bacillus subtilis is 16 mg/L (≈ 62.9 µM); in the assay with Aspergillus niger it was 16 mg/L (≈ 62.9 µM); in the assay on Klebsiella pneumoniae it was 512 mg/L (≈ 2010 µM); in the assay with Trichoderma, 8 mg/L (≈ 31.4 µM); in the assay on Escherichia coli, above 512 mg/L.
As to `CCOC(=O)C1C(=O)CC(C(C)(C)C)N(N=O)C1C(C)(C)C` (stereo not given), the MIC against Bacillus subtilis came to 64 mg/L (≈ 205 µM); with Aspergillus niger it was 64 mg/L (≈ 205 µM); with Klebsiella pneumoniae it was 32 mg/L (≈ 102 µM); with Trichoderma it was 32 mg/L (≈ 102 µM); in the assay with Escherichia coli, 64 mg/L (≈ 205 µM).
Consider `C[C@@H]1[C@H](O)[C@@H](C)/C=C/C=C/C=C/C=C/C=C/C=C/C=C/[C@H](O[C@@H]2O[C@H](C)[C@@H](O)[C@H](N)[C@@H]2O)C[C@@H]2O[C@](O)(C[C@@H](O)C[C@@H](O)[C@H](O)CC[C@@H](O)C[C@@H](O)CC(=O)O[C@H]1C)C[C@H](O)[C@H]2C(=O)O` [AMPHOTERICIN B], for which the MIC against Aspergillus niger and with Trichoderma was 32 mg/L (≈ 34.6 µM) in each case.
In the case of `CCn1cc(C(=O)O)c(=O)c2cc(F)c(N3CCNCC3)cc21` [NORFLOXACIN], the minimum inhibitory concentration (MIC) is 16 mg/L (≈ 50.1 µM) against Bacillus subtilis, 16 mg/L (≈ 50.1 µM) in the assay on Klebsiella pneumoniae and 32 mg/L (≈ 100 µM) in the assay on Escherichia coli.

The term MIC denotes the least concentration at which growth counts as inhibited. High values mean weaker potency, low ones greater potency.
